In patent US10653747B2, “ApoE mimetic peptides and higher potency to clear plasma cholesterol” (UAB RESEARCH FOUNDATION, priority 2014, dated 2020):
Ahx = NCCCCCC(=O)O

Experiments:
plasma cholesterol = assay: Plasma cholesterol reduction in apoE null mice after a single dose; format: in vivo; conditions: single dose in saline vehicle, at both 50 and 100 μg/mouse
Experimental: The study was carried out in apoE null mice (n=4 animals/group). The time points show the plasma cholesterol levels at the indicated times following a single dose administration. A single dose was administered using a saline vehicle.

VLDL = assay: Interaction of peptide with VLDL, displacement of apo E from VLDL
Experimental: It was determined that in MEF 1 cells with induced LDL receptors, LDL internalization was enhanced three, five and seven times by Ac-mE-18A-NH2, Ac-hE-18A-NH2, and Ac-hE(R)-18A-NH2 respectively. All three peptides increased degradation of LDL by 100 percent. […] However, only Ac-hE-18A-NH2-associated VLDL enhanced the uptake of VLDL six fold and degradation three fold compared to VLDL alone in spite of the absence of apoE. The LDL binding to fibroblasts in the presence of these peptides was not saturable, however, over the LDL concentration range studied.

[1] = tested on: MEF 1 cells with induced LDL receptors; assay: Uptake and degradation of human LDL by cells (LDL internalization, LDL degradation); format: cell-based
Excerpt: (§1) To test the hypothesis that a minimal arginine-rich Apo E receptor binding domain (141-150) was sufficient to enhance low density lipoprotein (LDL) and very low density lipoprotein (VLDL) uptake and clearance when covalently linked to a class A amphipathic helix, a peptide was synthesized in which the receptor binding domain of human Apo E, LRKLRKRLLR (SEQ ID NO:4) (hApo E[141-150] also referred to as “hE”), was linked to 18A, a well characterized high affinity lipid-associating peptide (DWLKAFYDKVAEKLKEAF (SEQ ID NO:5), also referred to as “18A”) to produce a peptide denoted as hApo E[141-150]-18A (also referred to as “hE-18A”) (see U.S. Pat. No. 6,506,880, which is hereby incorporated by reference in its entirety for its teaching of specific Apo E mimetics and their uses). Also synthesized was an end protected analog of hE-18A, denoted Ac-hE18A-NH2. […] The effect of the dual character peptides on the uptake and degradation of human LDL/VLDL by cells was then determined.
(§2) It was determined that in MEF 1 cells with induced LDL receptors, LDL internalization was enhanced three, five and seven times by Ac-mE-18A-NH2, Ac-hE-18A-NH2, and Ac-hE(R)-18A-NH2 respectively. […]

cells = assay: Uptake and degradation of peptide-associated VLDL by cells; format: cell-based; conditions: peptide-associated VLDL compared to VLDL alone, in the absence of apoE
Excerpt: as §1, §2

| Substance | reducing plasma cholesterol (plasma cholesterol) | displacement of apo E from VLDL (VLDL) | LDL internalization enhanced [1] | increased degradation of LDL [1] | enhanced degradation of VLDL (cells) | enhanced uptake of VLDL (cells) |
| --- | --- | --- | --- | --- | --- | --- |
| Ac-Aha-LRRLRRRLLR-DWLKAFYDKVAEKLKEAF-NH2 ({Ac-Ahx}-LRRLRRRLLRDWLKAFYDKVAEKLKEAF-NH2; SMILES CC(=O)NCCCCCC(=O)N[C@@H](CC(C)C)C(=O)N[C@@H](CCCNC(=N)N)C(=O)N[C@@H](CCCNC(=N)N)C(=O)N[C@@H](CC(C)C)C(=O)N[C@@H](CCCNC(=N)N)C(=O)N[C@@H](CCCNC(=N)N)C(=O)N[C@@H](CCCNC(=N)N)C(=O)N[C@@H](CC(C)C)C(=O)N[C@@H](CC(C)C)C(=O)N[C@@H](CCCNC(=N)N)C(=O)N[C@@H](CC(=O)O)C(=O)N[C@@H](Cc1c[nH]c2ccccc12)C(=O)N[C@@H](CC(C)C)C(=O)N[C@@H](CCCCN)C(=O)N[C@@H](C)C(=O)N[C@@H](Cc1ccccc1)C(=O)N[C@@H](Cc1ccc(O)cc1)C(=O)N[C@@H](CC(=O)O)C(=O)N[C@@H](CCCCN)C(=O)N[C@H](C(=O)N[C@@H](C)C(=O)N[C@@H](CCC(=O)O)C(=O)N[C@@H](CCCCN)C(=O)N[C@@H](CC(C)C)C(=O)N[C@@H](CCCCN)C(=O)N[C@@H](CCC(=O)O)C(=O)N[C@@H](C)C(=O)N[C@@H](Cc1ccccc1)C(N)=O)C(C)C) [AC-Aha-[R]hE18A-NH2] | highly effective | – | – | – | – | – |
| Ac-D-W-L-K-A-F-Y-D-K-V-A-E-K-L-K-E-A-F-NH2 (Ac-DWLKAFYDKVAEKLKEAF-NH2) [Ac-18A-NH2, control peptide; 18A is the lipid-associating peptide …, reference compound] | – | interacted with VLDL to cause a displacement of apo E from VLDL | – | – | – | – |
| Ac-LRKLRKRLLRDWLKAFYDKVAEKLKEAF-NH2 [Ac-hE-18A-NH2] | – | interacted with VLDL to cause a displacement of apo E from VLDL | five | 100% | three | six |
